# Measured values as given in paper PMC6024679 (Toxins, 2018).
# Where “and” joins values, the source holds several entries; their conditions need not be identical. Equal values may be shown once. Read-outs that look alike come from different tables or passages of the source.
# Columns and labels:
# [1] = system: mammalian NaVs; details: cited from earlier work
# Description: (§1) The first insect NaV gene (para) was cloned from Drosophila melanogaster. After that, lots of studies had cloned NaV genes from many arthropod pests and disease vectors, and most insects have only one para-like NaV gene. […] We speculated that μ-SPRTX-Hv2 is also a broad-spectrum insecticide but it is yet to be experimentally determined. In Blattella ger ...
# [2] = system: NaV1.7 channel; details: physiological depolarizing voltages; cited from earlier work
# Description: as §1
# [3] = system: meal beetles; details: cited from earlier work
# [4] = system: cockroaches; details: cited from earlier work
# [5] = system: PaNaV1 and BgNaV1 channels; details: β-Diguetoxin-Dc1a; cited from earlier work
# [6] = system: cockroaches; test: Lethal effect in cockroaches after injection of toxin, LD50 at 24 h; type: in vivo, cockroach
# Protocol: Fifty-six cockroaches were randomly divided into eight groups (n = 7 in each group). Seven groups were used as experimental groups, to which 10 μL toxin solution (dissolved in saline) was injected between the fourth and fifth sternite, at single dose of 0.29, 0.53, 0.96, 1.74, 3.09, 5.56, or 10 nmol/g for each group. The eighth group was used as experimental control and was injected with 10 μL saline. Lethal effect was observed 24 h after injection. The LD50 value was determined by using the improved Karber’s method. For testing the toxicity of μ-SPRTX-Hv2 to mouse, toxin at a single dose of 1.7 nmol/g (7.0 µg/g) was injected intraperitoneally.
# [7] = system: mouse; details: 7.0 μg/g (1.7 nmol/g), intraperitoneal, single dose, n = 3
# [8] = system: hNaV1.7; test: Whole-cell patch-clamp of NaV1.7 in HEK293T cells; type: cell-based, human (h, as printed in hNaV1.7)
# [9] = system: hNaV1.5; test: Whole-cell patch-clamp of NaV1.5 in HEK293T cells; type: cell-based, human (h, as printed in hNaV1.5)
# [10] = system: tetrodotoxin sensitive NaVs (TTX-S NaVs) in rat DRG neurons; type: cell-based
# [11] = system: DUM HVA CaVs; test: Whole-cell patch-clamp of HVA calcium channels in cockroach DUM neurons; type: cell-based
# [12] = system: HVA CaVs in rat DRG neurons; test: Whole-cell patch-clamp of HVA CaVs in rat DRG neurons; type: cell-based
# [13] = system: NaVs in cockroach DUM neurons; test: Whole-cell patch-clamp of voltage-gated sodium channels in cockroach DUM neurons; type: cell-based
# [14] = system: rNaV1.8; test: Whole-cell patch-clamp of NaV1.8 in ND7/23 cells; type: cell-based, rat (r, as printed in rNaV1.8)
# [15] = system: insect CaVs; details: ω-hexatoxin-Hv1a; cited from earlier work
molecule,measurement,setting,value
"NC1=N[C@H](O)[C@H]2[C@H]3O[C@]4(O)O[C@@H]([C@@H](O)[C@@]2(N1)[C@@H]4O)[C@]3(O)CO [TTX, tetrodotoxin]",mode of action on mammalian NaVs,[1],physically blocking the ion conducting pathway
HWTX-IV: toxin acting on NaV1.7 channel,effect on steady-state activation curve,[2],did not change the steady-state activation curve
brachyin,LD50,[3],1.55 pm/g of body weight
same,LD50,[4],1.02 pm/g of body weight
β-Diguetoxin-Dc1a,selectivity between PaNaV1 and BgNaV1,[5],showed selectivity between the highly conserved PaNaV1 and BgNaV1 channels
μ-sparatoxin-Hv2 [μ-SPRTX-Hv2],LD50,"[6]; cockroaches, calculated",11.7 μg/g of body weight
same,LD50,"[6]; in vivo, ip",3.6 nmol/g of body weight
same,LD50,"[6]; synthetic toxin, cockroaches, 10 μL in saline injected between fourth and fifth sternite, single dose 0.29-10 nmol/g, n = 7 per group, 24 h after injection, improved Karber's method",2.8 nmol/g of body weight
same,envenomation symptoms in mouse,[7],no obvious envenomation symptoms were observed
same,effect on NaV1.7 currents,[8],did not affect
same,effect on NaV1.5 currents,[9],did not affect
same,effect on TTX-S NaVs currents in rat DRG neurons,[10],did not affect the currents
same,effect on DUM HVA CaVs currents,[11],did not affect the currents of DUM HVA CaVs
same,effect on HVA CaVs currents in rat DRG neurons,[12],did not affect the currents
same,IC50,[13],834 nM and 718 nM
same,"Ka (slope factor, steady-state activation) after toxin treatment",[13],4.4 ± 0.4 mV
same,"Kh (slope factor, steady-state inactivation) after toxin treatment",[13],−5.4 ± 0.3 mV
same,Va (steady-state activation) after toxin treatment,[13],−23.0 ± 3.7 mV
same,Vh (steady-state inactivation) after toxin treatment,[13],−38.7 ± 4.1 mV
same,association time constant (τon),[13],13.8 ± 1.7 s
same,block of currents across voltages (I–V relationship),[13],blocked the currents at all voltage tested
same,"effect on initial activation voltage, peak current voltage and reversal voltage",[13],"did not affect the initial activation voltage, the peak current voltage and the reversal voltage"
same,reversibility of block on washing by bath solution perfusion,[13],could not be washed off by bath solution perfusion
same,effect on NaV1.8 currents,[14],did not affect
ω-hexatoxin-Hv1a,effect on insect CaVs,[15],acting on the insect CaVs
